The source of these data is patent US6455562B1, “Cyclic AMP-specific phosphodiesterase inhibitors” (Icos Corporation, priority 1999, dated 2002).

The conditions of data set [1]: in vivo; cited from earlier work.
Data set [2] concerns T1, recombinant human PDE4.
T1 construct: other: recombinant human PDE4
The experiment in a line: PDE4 inhibition, IC50 using recombinant human PDE4 (charcoal separation PDE assay). The settings on record: read-out: IC50 value versus human recombinant PDE4. It is filed as biochemical. As for the experimental part: The compounds of structural formula (II) were tested for an ability to inhibit PDE4. The ability of a compound to inhibit PDE4 activity is related to the IC50 value for the compound, i.e., the concentration of inhibitor required for 50% inhibition of enzyme activity. The IC50 value for compounds of structural formula (II) were determined using recombinant human PDE4. […]
Phosphodiesterase activity of the preparations was determined as follows. […] The [32P]5′-AMP or [32P]5′-GMP then was quantitatively converted to free [32P]phosphate and unlabeled adenosine or guanosine by the action of snake venom 5′-nucleotidase. […] PDE enzyme was present in quantities that yield <30% total hydrolysis of substrate (linear assay conditions). […] The reaction was stopped by addition of 200 μL of activated charcoal (25 mg/mL suspension in 0.1M NaH2PO4, pH 4) After centrifugation (750 X g for 3 minutes) to sediment the charcoal, a sample of the supernatant was taken for radioactivity determination in a scintillation counter and the PDE activity was calculated.

Data set [3] has as its system recombinant human PDE4. Particulars: reported, prior art; read-out: reported 50% Inhibitory Concentration (IC50) with respect to inhibiting recombinant human PDE4; cited from earlier work.

SMILES strings stand for the structures. Where two headings read alike, the source gives them in different places.

For `COc1ccc([C@@H]2CNC(=O)C2)cc1OC1CCCC1` (single isomer, unassigned) [(−)-enantiomer of rolipram, R-rolipram], the “emetic potential relative to the (+)-enantiomer (S-rolipram)” value in data set [1] is recorded as “about ten-fold more emetic”.

Take `COc1ccc([C@@H]2CN(Cc3ccccc3)C[C@@]2(C)c2nn[nH]n2)cc1OC1CCCC1` [Example 1]: in the data set on recombinant human PDE4 [2], the IC50 worked out at 7.9 µM.

`COc1ccc(C2CNC(=O)C2)cc1OC1CCCC1` (stereo not shown) [Rolipram]: in the data set on recombinant human PDE4 [3], the IC50 is ~0.2 µM.

For `COC(=O)N1CC(c2ccc(OC)c(OC3CCCC3)c2)C(C)(C(C)=O)C1` (stereo not shown) [formula (I)], the IC50 in the data set on recombinant human PDE4 [3] was ~0.002 µM.
